The subject of test [1] is TPA-induced ear edema and acanthosis in Balb/c mice. Description: Mouse TPA-induced ear-swelling model. The class given is in vivo. The note with it: topical, 240 h, 1% w/v solution, 20 μL applied to ear once a day from day 0 to day 9, female Balb/c mice, read-out: Inhibition rate of change in ear thickness on day 10. The protocol: Seven-week-old female Balb/c mice (Charles River Laboratories Japan) were used. 20 μL of a 20 ng/mL solution of TPA (Wako Pure Chemical Industries, 162-23591) dissolved in 5% DMSO/acetone was applied to the outer side of the mouse ear on day 0, day 2, day 4, day 7 and day 9 to induce ear edema and acanthosis. The test compound was dissolved in a 5% DMSO/acetone solution (concentration: 1% w/v) and 20 μL of the resulting solution was applied to the outer side of the ear once a day from day 0 to day 9. For the control group, a 5% DMSO/acetone solution was similarly applied. The TPA solution and the test compound solution were mixed and applied on the days for TPA application (day 0, day 2, day 4, day 7 and day 9). The ear thickness was chronologically measured on days 0-4 and days 7-10 using a micrometer (Mitutoyo, MDC-25MJT). The change in ear thickness and the inhibition rate were determined by the following formulas. Change in ear thickness=(ear thickness measured on day 10)−(ear thickness measured on day 0 before TPA application) Inhibition rate (%)=100−(change in ear thickness for test compound group/change in ear thickness for control group)×100

The subject of test [2] is normal human neonatal foreskin epidermal keratinocytes (NHEK-F). Description: Cell proliferation inhibition test. In kind it is cell-based. The note with it: Keratinocyte, 72 h, NHEK-F cells, three days incubation, ATPlite or CellTiterGlo, read-out: IC50 (concentration of the compound at which the cell count is reduced by 50%). In outline:
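IC50 is the compound level halving cell count relative to untreated wells, with counts from ATP-based luminescence (ATPlite or CellTiterGlo). Readout followed 3 days of compound exposure of overnight-attached neonatal foreskin keratinocytes (2×10^3/well, Humedia-EG2 medium).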
A general note: Cellular ATP, detected with luciferase, serves as a proxy for viable cell number.

Where only a bound is given, the exact number is not on record here.

With `CS(=O)(=O)NC(=O)c1cc(C2CC2)cnc1Nc1ccc2c(ccn2Cc2ccccc2)c1` [Example 149, 2-((1-benzyl-1H-indol-5-yl)amino)-5-cyclopropyl-N-(methylsulfonyl)nicotinamide], in test [1], the inhibition in vivo at 1 % strength was ≥ 20%. Besides, in test [2], the IC50 was in the range of 10 to 100 nM.
The matching figures for `N#Cc1cccc(Cn2ccc3cc(Nc4ncc(C5CC5)cc4C(=O)O)ccc32)c1` [Example 453, 2-((1-(3-cyanobenzyl)-1H-indol-5-yl)amino)-5-cyclopropylnicotinic acid]: ≥ 20% and 10 to 100 nM.
The matching figures for `Cc1cc(Nc2ncc(C3CC3)cc2C(=O)O)cc2ccn(Cc3cccc(F)c3)c12` [Example 621, 5-cyclopropyl-2-((1-(3-fluorobenzyl)-7-methyl-1H-indol-5-yl)amino)nicotinic acid]: ≥ 20% and ≤ 10 nM.
The matching figures for `Cn1ccc2cc(Nc3ncc(C4CC4)cc3C(=O)O)cc(-c3ccc(F)cc3F)c21` [Example 588, 5-cyclopropyl-2-((7-(2,4-difluorophenyl)-1-methyl-1H-indol-5-yl)amino)nicotinic acid]: ≥ 20% and ≤ 10 nM.
As for `COc1cccc(Cn2ccc3cc(Nc4ncc(C5CC5)cc4C(=O)O)ccc32)c1` [Example 237, 5-cyclopropyl-2-((1-(3-methoxybenzyl)-1H-indol-5-yl)amino)nicotinic acid], the inhibition in vivo at 1 % strength in test [1] was ≥ 20%. Moreover, in test [2], the IC50 lay within 10 to 100 nM.
For `Cn1ccc2cc(Nc3ncc(C4CC4)cc3C(=O)O)cc(-c3ccccc3C#N)c21` [Example 482, 2-((7-(2-cyanophenyl)-1-methyl-1H-indol-5-yl)amino)-5-cyclopropylnicotinic acid], in that order: ≥ 20% and ≤ 10 nM.
On to `Cn1ccc2cc(Nc3ncc(C4CC4)cc3C(=O)O)cc(-c3ccc(F)cc3)c21` [Example 466, 5-cyclopropyl-2-((7-(4-fluorophenyl)-1-methyl-1H-indol-5-yl)amino)nicotinic acid], for which the inhibition in vivo at 1 % strength in test [1] is ≥ 20%. Moreover, in test [2], the IC50 was ≤ 10 nM.
For `Cc1cccc(Cn2ccc3cc(Nc4ncc(C5CC5)cc4C(=O)O)ccc32)c1` [Example 456, 5-cyclopropyl-2-((1-(3-methylbenzyl)-1H-indol-5-yl)amino)nicotinic acid], in that order: ≥ 20% and ≤ 10 nM.
For the compound `COc1ccccc1-c1cc(Nc2ncc(C3CC3)cc2C(=O)O)cc2ccn(C)c12` [Example 485, 5-cyclopropyl-2-((7-(2-methoxyphenyl)-1-methyl-1H-indol-5-yl)amino)nicotinic acid], the inhibition in vivo at 1 % strength in test [1] was ≥ 20%. In test [2], the IC50 is ≤ 10 nM.
The matching figures for `COCCCc1cc(Nc2ncc(C3CC3)cc2C(=O)O)cc2ccn(C)c12` [Example 468, 5-cyclopropyl-2-((7-(3-methoxypropyl)-1-methyl-1H-indol-5-yl)amino)nicotinic acid]: ≥ 20% and 10 to 100 nM.
As to `O=C(O)c1cc(C2CC2)cnc1Nc1ccc2c(ccn2CC2CCC2)c1` [Example 133, 2-((1-(cyclobutylmethyl)-1H-indol-5-yl)amino)-5-cyclopropylnicotinic acid], in test [1], the inhibition in vivo at 1 % strength is ≥ 20%. In test [2], the IC50 is ≤ 10 nM.
Regarding `O=C(O)c1cc(C2CC2)cnc1Nc1ccc2c(ccn2Cc2cccc(Cl)c2)c1` [Example 460, 2-((1-(3-chlorobenzyl)-1H-indol-5-yl)amino)-5-cyclopropylnicotinic acid], in test [1], the inhibition in vivo at 1 % strength was ≥ 20%. Also, the IC50 in test [2] was ≤ 10 nM.
Turning to `O=C(O)c1cc(C2CC2)cnc1Nc1ccc2c(c1)sc(=O)n2CC1CCCCC1` [Example 565, 2-((3-(cyclohexylmethyl)-2-oxo-2,3-dihydro-1,3-benzothiazol-6-yl)amino)-5-cyclopropylnicotinic acid], the inhibition in vivo at 1 % strength in test [1] was ≥ 20%. Besides, the IC50 in test [2] was ≤ 10 nM.
For `O=C(O)c1cc(C2CC2)cnc1Nc1ccc2c(ccn2Cc2cc(F)cc(F)c2)c1` [Example 497, 5-cyclopropyl-2-((1-(3,5-difluorobenzyl)-1H-indol-5-yl)amino)nicotinic acid], in that order: ≥ 20% and ≤ 10 nM.
The matching figures for `CCn1c(-c2ccccc2)cc2cc(Nc3ncc(C4CC4)cc3C(=O)O)ccc21` [Example 142, 5-cyclopropyl-2-((1-ethyl-2-phenyl-1H-indol-5-yl)amino)nicotinic acid]: ≥ 20% and 10 to 100 nM.
In the case of `CCC(CC)Cn1ccc2cc(Nc3ncc(C4CC4)cc3C(=O)O)ccc21` [Example 632, 5-cyclopropyl-2-((1-(2-ethylbutyl)-1H-indol-5-yl)amino)nicotinic acid], the inhibition in vivo at 1 % strength in test [1] is ≥ 20%. In test [2], the IC50 is ≤ 10 nM.
For `CCCCn1ccc2cc(Nc3ncc(C4CC4)cc3C(=O)O)ccc21` [Example 637, 2-((1-butyl-1H-indol-5-yl)amino)-5-cyclopropylnicotinic acid], in that order: ≥ 20% and 10 to 100 nM.
Take `O=C(O)c1cc(C2CC2)cnc1Nc1ccc2c(ccn2Cc2cccc(C(F)(F)F)c2)c1` [Example 450, 5-cyclopropyl-2-((1-(3-(trifluoromethyl)benzyl)-1H-indol-5-yl)amino)nicotinic acid]: the inhibition in vivo at 1 % strength in test [1] was ≥ 20%. The IC50 in test [2] was ≤ 10 nM.
For `CCn1ccc2cc(Nc3ncc(C4CC4)cc3C(=O)O)cc(-c3ccccc3)c21` [Example 597, 5-cyclopropyl-2-((1-ethyl-7-phenyl-1H-indol-5-yl)amino)nicotinic acid], in that order: ≥ 20% and ≤ 10 nM.
`Cn1ccc2cc(Nc3ncc(C4CC4)cc3C(=O)O)cc(CCC(C)(C)C)c21` [Example 595, 5-Cyclopropyl-2-((7-(3,3-dimethylbutyl)-1-methyl-1H-indol-5-yl)amino)nicotinic acid]: the inhibition in vivo at 1 % strength in test [1] is ≥ 20%. Also, the IC50 in test [2] was ≤ 10 nM.
The matching figures for `O=C(O)c1cc(C2CC2)cnc1Nc1ccc2c(ccn2Cc2ccc(F)cc2F)c1` [Example 633, 5-cyclopropyl-2-((1-(2,4-difluorobenzyl)-1H-indol-5-yl)amino)nicotinic acid]: ≥ 20% and ≤ 10 nM.
For the compound `CC(C)c1cc(Nc2ncc(C3CC3)cc2C(=O)O)cc2ccn(C)c12` [Example 411, 5-cyclopropyl-2-((7-isopropyl-1-methyl-1H-indol-5-yl)amino)nicotinic acid], the inhibition in vivo at 1 % strength in test [1] was ≥ 20%. Also, the IC50 in test [2] is 10 to 100 nM.
In the case of `Cn1ccc2cc(Nc3ncc(C4CC4)cc3C(=O)O)cc(-c3ccc(C#N)cc3)c21` [Example 484, 2-((7-(4-cyanophenyl)-1-methyl-1H-indol-5-yl)amino)-5-cyclopropylnicotinic acid], the inhibition in vivo at 1 % strength in test [1] was ≥ 20%. In addition, in test [2], the IC50 was ≤ 10 nM.
As for `CCCCCn1ccc2cc(Nc3ncc(C4CC4)cc3C(=O)O)ccc21` [Example 638, 5-cyclopropyl-2-((1-pentyl-1H-indol-5-yl)amino)nicotinic acid], the inhibition in vivo at 1 % strength in test [1] is ≥ 20%. In test [2], the IC50 fell in the range of 10 to 100 nM.
Regarding `CC(C)CCn1ccc2cc(Nc3ncc(C4CC4)cc3C(=O)O)ccc21` [Example 448, 5-cyclopropyl-2-(1-isopentyl-1H-indol-5-ylamino)nicotinic acid], the inhibition in vivo at 1 % strength in test [1] is ≥ 20%. Further, in test [2], the IC50 was ≤ 10 nM.
The matching figures for `CCCCCCn1ccc2cc(Nc3ncc(C4CC4)cc3C(=O)O)ccc21` [Example 639, 5-cyclopropyl-2-((1-hexyl-1H-indol-5-yl)amino)nicotinic acid]: ≥ 20% and ≤ 10 nM.
On to `CC(C)Cn1ccc2cc(Nc3ncc(C4CC4)cc3C(=O)O)ccc21` [Example 126, 2-((1-isobutyl-1H-indol-5-yl)amino)-5-cyclopropylnicotinic acid], for which, in test [1], the inhibition in vivo at 1 % strength was ≥ 20%. Further, the IC50 in test [2] is ≤ 10 nM.
Turning to `O=C(O)c1cc(C2CC2)cnc1Nc1ccc2c(ccn2Cc2ccc(F)c(F)c2)c1` [Example 635, 5-cyclopropyl-2-((1-(3,4-difluorobenzyl)-1H-indol-5-yl)amino)nicotinic acid], the inhibition in vivo at 1 % strength in test [1] is ≥ 20%. Moreover, the IC50 in test [2] was ≤ 10 nM.
The matching figures for `O=C(O)c1cc(C2CC2)cnc1Nc1ccc2c(ccn2CC2CCCCC2)c1` [Example 130, 2-((1-(cyclohexylmethyl)-1H-indol-5-yl)amino)-5-cyclopropylnicotinic acid]: ≥ 20% and ≤ 10 nM.
`O=C(O)c1cc(C2CC2)cnc1Nc1ccc2c(ccn2-c2ccc(F)cc2)c1` [Example 233, 5-cyclopropyl-2-((1-(4-fluorophenyl)-1H-indol-5-yl)amino)nicotinic acid]: the inhibition in vivo at 1 % strength in test [1] is ≥ 20%. The IC50 in test [2] was ≤ 10 nM.

Values taken from patent publication US9624215B2, “Amine derivative or salt thereof” (TOYAMA CHEMICAL CO., LTD., priority 2012, dated 2017).
